This is an account of results in patent US9822108B2, “Antimicrobial agents” (RUTGERS, THE STATE UNIVERSITY OF NEW JERSEY, priority 2012, dated 2017).

Assay [1] relates to methicillin-susceptible Staphylococcus aureus (MSSA). Description: Antibacterial assay (Test C, broth microdilution MIC) against MSSA. Format: cell-based. The conditions noted are these: minimal inhibitory concentration, 37° C., growth read after 24 to 48 hours at OD 600 nm, read-out: MSSA (MIC ug/ml). As for the experimental part: (§1) Test C. Antibacterial Assay.
(§2) Antibacterial activity can be determined as per Clinical and Laboratory Standards Institute (CLSI) guidelines using a broth microdilution assay in which log-phase bacteria are grown at 37° C. in appropriate medium containing two-fold serial dilutions of a compound to yield final concentrations ranging from 256 to 0.06 μg/mL. For determination of minimal inhibitory concentration (MIC) values, bacterial growth is monitored after 24 to 48 hours by measuring optical density at 600 nm.
(§3) Using a procedure similar to Test C, representative compounds of the invention were tested against methicillin-susceptible Staphylococcus aureus (MSSA) and methicillin-resistant Staphylococcus aureus (MRSA).
In general terms: Broth dilution looks for growth in wells or tubes with falling amounts of substance.

The test system of assay [2] is methicillin-resistant Staphylococcus aureus (MRSA). Description: Antibacterial assay (Test C, broth microdilution MIC) against MRSA. The note with it: minimal inhibitory concentration, 37° C., growth read after 24 to 48 hours at OD 600 nm, read-out: MRSA (MIC ug/ml). The class given is cell-based. As for the experimental part: as §1, §2, §3

The structures appear in SMILES notation. In brackets after ≈: the same amount, converted by molar mass. Where only a bound is given, the exact number is not on record here.

Take `C[n+]1cc(-c2ccccc2)nc2ccccc21` [Example 1]: the MIC in assay [1] came out at 2 µg/mL; in assay [2], 8 µg/mL. In the same order, the values of `C[n+]1cc(-c2cccc(F)c2)nc2ccccc21` [Example 2] are 2 µg/mL and 4 µg/mL. In the same order, the values of `C[n+]1cc(-c2cccc(-c3ccccc3)c2)nc2ccccc21` [Example 3] are 0.25 µg/mL and 0.25 µg/mL. Turning to `C[n+]1cc(-c2cccc(C(C)(C)C)c2)nc2ccccc21` [Example 4], the values for the MIC in assay [1] and in assay [2] were 0.5 µg/mL and 1 µg/mL, respectively.

Take `C[n+]1cc(-c2ccc(C(C)(C)C)cc2)nc2ccccc21` [Example 5]: the MIC in assay [1] worked out at 0.5 µg/mL; in assay [2] it was 1 µg/mL. In the same order, the values of `COC(=O)c1cc(-c2ccc(C(C)(C)C)cc2)cc(-c2c[n+](C)c3ccccc3n2)c1` [Example 6] are 0.5 µg/mL and 1 µg/mL. In the case of `C[n+]1cc(-c2cc(C(N)=O)cc(-c3ccc(C(C)(C)C)cc3)c2)nc2ccccc21` [Example 7], the MIC in assay [1] and in assay [2] was 2 µg/mL in each case.

Take `C[n+]1cc(-c2cc(C(=O)NCCO)cc(-c3ccc(C(C)(C)C)cc3)c2)nc2ccccc21` [Example 8]: the MIC in assay [1] and in assay [2] was 4 µg/mL each time. Consider `CC(C)(C)c1ccc(-c2cc(C(=O)NCCN)cc(-c3cnc4ccccc4n3)c2)cc1` [Example 9], for which the MIC in assay [1] and in assay [2] was 4 µg/mL (≈ 9.42 µM) in each case. For the molecule `CC(C)(C)c1ccc(-c2cnc3c(CNC(=N)N)cccc3n2)cc1` [Example 10], the MIC in assay [1] and in assay [2] was 2 µg/mL (≈ 6 µM) throughout. For `CC(C)(C)c1cccc(-c2cnc3c(CNC(=N)N)cccc3n2)c1` [Example 11], the MIC in assay [1] was 1 µg/mL (≈ 3 µM); in assay [2], 2 µg/mL (≈ 6 µM). In the same order, the values of `CC(C)(C)c1ccc(-c2ncnc3c(CNC(=N)N)cccc23)cc1` [Example 12] are 2 µg/mL (≈ 6 µM) and 4 µg/mL (≈ 12 µM). For the molecule `CC(=N)NCc1cccc2c(-c3ccc(C(C)(C)C)cc3)ncnc12` [Example 13], the MIC in assay [1] came to 32 µg/mL (≈ 96.3 µM); in assay [2] it was 64 µg/mL (≈ 193 µM). In the same order, the values of `CC(C)(C)c1ccc(-c2ncnc3c(CN)cccc23)cc1` [Example 14] are 32 µg/mL (≈ 110 µM) and 64 µg/mL (≈ 220 µM). As for `Cc1cccc(-c2nc3ccccc3nc2NCCN)c1` [Example 15], the MIC in assay [1] and in assay [2] was more than 64 µg/mL each time.

As for `CC(C)(C)c1ccc(-c2cccc3c(CNC(=N)N)ncnc23)cc1` [Example 16], the MIC in assay [1] is 8 µg/mL (≈ 24 µM); in assay [2] it was 64 µg/mL (≈ 192 µM). On to `CC(C)(C)c1ccc(-c2ccnc3c(CNC(=N)N)ccnc23)cc1` [Example 17], for which the MIC turned out to be 4 µg/mL (≈ 12 µM) in assay [1] and 8 µg/mL (≈ 24 µM) in assay [2]. In the case of `CC(C)(C)c1ccc(-c2ccnc3c(CN)ccnc23)cc1` [Example 18], the MIC in assay [1] and in assay [2] was more than 64 µg/mL in each case. On to `CC(C)(C)c1ccc(-c2nnc(CNC(=N)N)c3ccccc23)cc1` [Example 19], for which the MIC in assay [1] is 16 µg/mL (≈ 48 µM). For `CC(C)(C)c1cccc(-c2nc(CNC(=N)N)c3ccccc3n2)c1` [Example 20], the MIC in assay [1] stood at 4 µg/mL (≈ 12 µM).

As for `CC(C)(C)c1cccc(-c2cnc3cccc(CNC(=N)N)c3n2)c1` [Example 21], the MIC in assay [1] and in assay [2] was 2 µg/mL (≈ 6 µM) each time.

With `CC(C)(C)c1cccc(-c2cnc3cc(CNC(=N)N)ccc3n2)c1` [Example 22], the figures for the MIC in assay [1] and in assay [2] were 4 µg/mL (≈ 12 µM) and 8 µg/mL (≈ 24 µM), respectively.
